Tests used:
Assay type in all cases: functional
[1] = test system: L929; test: Cytotoxicity against Mus musculus (mouse) L929 cells assessed as metabolically active cells at 150 ug/ml after 24 hr by MTT assay relative to control
[2] = test system: L929; test: Cytotoxicity against Mus musculus (mouse) L929 cells assessed as metabolically active cells at 50 ug/ml after 24 hr by MTT assay relative to control
[3] = test system: L929; test: Cytotoxicity against Mus musculus (mouse) L929 cells assessed as metabolically active cells at 200 ug/ml after 24 hr by MTT assay relative to control
[4] = test system: L929; test: Cytotoxicity against Mus musculus (mouse) L929 cells assessed as metabolically active cells at 100 ug/ml after 24 hr by MTT assay relative to control

With `COc1ccc2cc3[n+](cc2c1OC)CCc1cc2c(cc1-3)OCO2.[Cl-]` [BERBERINE CHLORIDE] the Activity [1] was 41.77%, the Activity [2] was 106.45% and the Activity [3] was 23.57%. It also gave an Activity [4] of 67.41%.

Reference: ChEMBL document CHEMBL3044997, “Cytotoxic Effect of Coscinium Fenestratrum (Gaertn.) Colebr. and its Active Principle Berberine on L929 Cells” (2005)
